Experiment [1] addresses T1, Serine/threonine-protein kinase Sgk3 (Homo sapiens) (UniProt Q96BR1).
T1 sequence (whole entry): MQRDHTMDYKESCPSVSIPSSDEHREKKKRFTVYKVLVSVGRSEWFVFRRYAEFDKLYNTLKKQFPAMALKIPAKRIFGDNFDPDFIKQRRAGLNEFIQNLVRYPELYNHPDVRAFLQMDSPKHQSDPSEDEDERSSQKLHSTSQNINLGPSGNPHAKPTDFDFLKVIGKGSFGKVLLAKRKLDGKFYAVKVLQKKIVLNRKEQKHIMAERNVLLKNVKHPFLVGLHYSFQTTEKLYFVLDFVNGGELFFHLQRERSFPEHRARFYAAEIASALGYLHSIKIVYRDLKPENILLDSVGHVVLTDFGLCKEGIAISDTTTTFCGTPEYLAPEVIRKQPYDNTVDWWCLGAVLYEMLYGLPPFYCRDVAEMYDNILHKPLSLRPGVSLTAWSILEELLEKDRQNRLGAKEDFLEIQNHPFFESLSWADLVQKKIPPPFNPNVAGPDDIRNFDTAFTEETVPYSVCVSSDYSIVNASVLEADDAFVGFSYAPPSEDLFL
Kind of experiment: Selectivity interaction (Kinase panel (Z-LYTE Assay)) EUB0001632a SGK3. The following applies: at 10 µM.

The target of experiment [2] is T2, cGMP-dependent protein kinase 2 (Homo sapiens) (UniProt Q13237).
T2 sequence (whole entry): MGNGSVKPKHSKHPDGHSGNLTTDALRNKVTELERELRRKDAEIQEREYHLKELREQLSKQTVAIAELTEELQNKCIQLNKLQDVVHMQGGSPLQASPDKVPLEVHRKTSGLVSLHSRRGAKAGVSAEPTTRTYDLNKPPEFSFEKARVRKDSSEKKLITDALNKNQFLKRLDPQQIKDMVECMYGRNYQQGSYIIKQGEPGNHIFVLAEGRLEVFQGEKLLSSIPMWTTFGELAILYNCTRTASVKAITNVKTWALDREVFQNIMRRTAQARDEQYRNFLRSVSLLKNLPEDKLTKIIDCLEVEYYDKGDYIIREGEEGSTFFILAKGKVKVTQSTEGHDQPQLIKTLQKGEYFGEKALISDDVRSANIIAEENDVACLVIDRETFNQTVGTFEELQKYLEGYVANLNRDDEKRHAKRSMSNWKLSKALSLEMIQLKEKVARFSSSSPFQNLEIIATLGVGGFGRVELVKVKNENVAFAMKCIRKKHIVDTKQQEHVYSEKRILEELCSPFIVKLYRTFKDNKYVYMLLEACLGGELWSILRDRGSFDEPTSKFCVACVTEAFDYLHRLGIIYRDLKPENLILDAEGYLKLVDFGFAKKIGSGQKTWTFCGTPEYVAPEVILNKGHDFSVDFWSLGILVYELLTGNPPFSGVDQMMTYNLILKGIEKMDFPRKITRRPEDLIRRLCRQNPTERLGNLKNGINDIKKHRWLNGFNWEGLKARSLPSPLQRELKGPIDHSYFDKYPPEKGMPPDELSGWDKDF
The settings on record: at 10 µM.

Experiment [3] concerns the target Proto-oncogene tyrosine-protein kinase receptor Ret (Homo sapiens, UniProt P07949). Kind of experiment: Selectivity interaction (Kinase panel (Invitrogen)) EUB0000639a RET. The following applies: at 200 nM.
In experiment [4] the target is STE20-like serine/threonine-protein kinase (Homo sapiens, UniProt Q9H2G2). Briefly: Selectivity interaction (ActivX KiNativ screen (kinase selectivity in THP-1 cell lysates)) EUB0000639a SLK. It is filed as subcellular. The settings on record: lysate, at 5 µM.
STE20-like serine/threonine-protein kinase, sequence (Q9H2G2 whole entry, looked up): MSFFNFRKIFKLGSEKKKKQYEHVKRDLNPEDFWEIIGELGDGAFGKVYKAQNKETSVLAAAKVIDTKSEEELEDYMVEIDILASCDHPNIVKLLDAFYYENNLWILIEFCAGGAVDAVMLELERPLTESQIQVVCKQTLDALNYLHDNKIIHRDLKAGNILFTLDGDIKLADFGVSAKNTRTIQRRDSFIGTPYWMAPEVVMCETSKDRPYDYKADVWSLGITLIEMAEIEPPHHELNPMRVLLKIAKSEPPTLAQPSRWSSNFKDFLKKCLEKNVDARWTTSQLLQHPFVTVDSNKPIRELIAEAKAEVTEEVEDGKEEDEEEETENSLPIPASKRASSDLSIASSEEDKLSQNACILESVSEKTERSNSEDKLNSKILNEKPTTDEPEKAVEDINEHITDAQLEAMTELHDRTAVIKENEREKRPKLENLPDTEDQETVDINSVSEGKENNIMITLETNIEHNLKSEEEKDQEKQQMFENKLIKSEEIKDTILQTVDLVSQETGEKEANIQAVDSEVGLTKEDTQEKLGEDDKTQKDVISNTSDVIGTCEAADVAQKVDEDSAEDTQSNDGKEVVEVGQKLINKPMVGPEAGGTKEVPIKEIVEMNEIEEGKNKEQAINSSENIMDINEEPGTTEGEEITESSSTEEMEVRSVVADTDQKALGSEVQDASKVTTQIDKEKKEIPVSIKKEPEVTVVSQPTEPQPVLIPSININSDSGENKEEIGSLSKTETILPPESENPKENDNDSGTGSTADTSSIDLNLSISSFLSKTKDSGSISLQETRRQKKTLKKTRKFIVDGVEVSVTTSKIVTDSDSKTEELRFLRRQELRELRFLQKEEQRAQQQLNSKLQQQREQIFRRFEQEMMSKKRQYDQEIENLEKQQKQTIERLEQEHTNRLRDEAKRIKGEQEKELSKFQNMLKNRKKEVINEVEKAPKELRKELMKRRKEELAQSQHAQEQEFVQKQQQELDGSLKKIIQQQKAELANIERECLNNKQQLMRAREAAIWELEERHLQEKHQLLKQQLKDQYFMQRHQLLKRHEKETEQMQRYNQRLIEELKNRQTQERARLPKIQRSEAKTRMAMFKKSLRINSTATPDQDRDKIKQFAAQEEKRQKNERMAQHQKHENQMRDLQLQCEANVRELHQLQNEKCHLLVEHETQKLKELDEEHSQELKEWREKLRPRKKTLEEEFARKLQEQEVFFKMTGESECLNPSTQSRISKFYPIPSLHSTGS
The target in experiment [5] is Serine/threonine-protein kinase 10 (Homo sapiens) (UniProt O94804). Briefly: Selectivity interaction (ActivX KiNativ screen (kinase selectivity in THP-1 cell lysates)) EUB0000639a STK10. It is filed as subcellular. The following applies: lysate, at 0.01 µM.
Serine/threonine-protein kinase 10 (Homo sapiens), sequence (O94804 whole entry, looked up, the tested form may be a part): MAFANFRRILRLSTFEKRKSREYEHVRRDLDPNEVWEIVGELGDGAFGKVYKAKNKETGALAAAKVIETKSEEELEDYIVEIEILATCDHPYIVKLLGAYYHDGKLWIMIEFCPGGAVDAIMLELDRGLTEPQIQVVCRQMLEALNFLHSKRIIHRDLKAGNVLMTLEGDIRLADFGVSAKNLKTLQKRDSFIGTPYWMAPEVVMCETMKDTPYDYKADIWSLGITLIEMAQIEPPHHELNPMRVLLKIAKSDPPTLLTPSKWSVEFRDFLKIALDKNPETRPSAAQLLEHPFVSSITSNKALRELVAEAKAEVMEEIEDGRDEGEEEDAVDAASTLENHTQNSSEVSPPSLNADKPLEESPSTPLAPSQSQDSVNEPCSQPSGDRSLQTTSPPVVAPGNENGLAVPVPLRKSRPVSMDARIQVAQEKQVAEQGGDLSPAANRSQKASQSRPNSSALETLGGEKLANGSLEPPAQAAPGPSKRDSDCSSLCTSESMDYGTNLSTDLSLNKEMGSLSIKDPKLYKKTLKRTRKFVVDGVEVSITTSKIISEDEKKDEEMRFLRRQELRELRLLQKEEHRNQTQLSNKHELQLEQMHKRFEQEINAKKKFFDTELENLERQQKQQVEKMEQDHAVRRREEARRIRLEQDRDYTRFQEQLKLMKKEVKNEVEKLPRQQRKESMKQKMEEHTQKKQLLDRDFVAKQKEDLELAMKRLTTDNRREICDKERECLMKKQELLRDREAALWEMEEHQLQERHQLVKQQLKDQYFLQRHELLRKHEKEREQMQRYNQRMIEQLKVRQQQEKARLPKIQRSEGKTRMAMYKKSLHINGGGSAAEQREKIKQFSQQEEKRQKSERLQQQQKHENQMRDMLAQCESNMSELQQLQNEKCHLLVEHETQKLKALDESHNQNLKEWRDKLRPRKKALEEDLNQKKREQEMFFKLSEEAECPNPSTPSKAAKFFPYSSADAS
The target in experiment [6] is T3, Phosphatidylinositol 3-kinase C2 domain-containing subunit gamma (Homo sapiens) (UniProt O75747).
T3 sequence (whole entry): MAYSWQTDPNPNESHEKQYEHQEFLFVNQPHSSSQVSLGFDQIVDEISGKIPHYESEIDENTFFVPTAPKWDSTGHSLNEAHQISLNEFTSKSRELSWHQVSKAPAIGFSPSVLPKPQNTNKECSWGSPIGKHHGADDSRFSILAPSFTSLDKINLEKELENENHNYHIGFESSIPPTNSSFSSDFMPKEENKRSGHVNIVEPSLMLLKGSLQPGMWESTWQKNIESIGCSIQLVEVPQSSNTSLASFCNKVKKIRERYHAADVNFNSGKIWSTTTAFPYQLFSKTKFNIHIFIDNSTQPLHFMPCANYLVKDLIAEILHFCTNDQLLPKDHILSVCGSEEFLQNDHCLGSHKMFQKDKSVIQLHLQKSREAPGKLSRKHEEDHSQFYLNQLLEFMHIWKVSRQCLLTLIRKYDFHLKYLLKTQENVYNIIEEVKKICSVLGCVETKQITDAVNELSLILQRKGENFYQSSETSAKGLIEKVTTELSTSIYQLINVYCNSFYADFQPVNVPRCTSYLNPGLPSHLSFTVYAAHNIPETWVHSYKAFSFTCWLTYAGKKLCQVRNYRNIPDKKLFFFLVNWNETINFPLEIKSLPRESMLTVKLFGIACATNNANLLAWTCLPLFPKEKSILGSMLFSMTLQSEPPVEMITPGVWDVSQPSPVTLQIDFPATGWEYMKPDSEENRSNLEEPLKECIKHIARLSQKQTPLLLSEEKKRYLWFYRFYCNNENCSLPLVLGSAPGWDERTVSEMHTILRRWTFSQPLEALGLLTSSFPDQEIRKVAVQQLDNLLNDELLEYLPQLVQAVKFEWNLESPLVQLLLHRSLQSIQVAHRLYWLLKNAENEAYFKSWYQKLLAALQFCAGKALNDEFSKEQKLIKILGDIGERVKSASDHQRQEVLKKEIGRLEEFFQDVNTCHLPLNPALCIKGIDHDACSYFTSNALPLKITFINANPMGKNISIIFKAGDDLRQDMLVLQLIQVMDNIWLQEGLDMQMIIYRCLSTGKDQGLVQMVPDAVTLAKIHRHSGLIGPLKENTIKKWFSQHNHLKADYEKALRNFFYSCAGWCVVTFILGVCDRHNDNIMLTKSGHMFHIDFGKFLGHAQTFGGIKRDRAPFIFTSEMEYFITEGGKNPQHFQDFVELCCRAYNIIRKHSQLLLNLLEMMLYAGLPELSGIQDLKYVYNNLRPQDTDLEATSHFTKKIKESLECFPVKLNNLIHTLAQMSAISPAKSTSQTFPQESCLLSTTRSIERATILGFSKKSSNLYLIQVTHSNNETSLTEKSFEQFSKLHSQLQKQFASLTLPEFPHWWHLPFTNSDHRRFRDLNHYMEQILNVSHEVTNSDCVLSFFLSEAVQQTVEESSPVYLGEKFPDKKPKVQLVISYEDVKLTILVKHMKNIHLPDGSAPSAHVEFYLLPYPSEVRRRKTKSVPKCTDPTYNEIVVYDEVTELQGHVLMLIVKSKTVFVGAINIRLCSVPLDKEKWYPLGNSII
Kind of experiment: Selectivity interaction (KinomeScan (DiscoverX)) EUB0001079a PIK3C2G. The settings on record: at 1 µM.

Consider 4 compounds from ChEMBL document CHEMBL5465560, “Selectivity Literature for EUbOPEN Chemogenomic Library” (2024).

Proto-oncogene tyrosine-protein kinase receptor Ret, sequence (P07949 whole entry): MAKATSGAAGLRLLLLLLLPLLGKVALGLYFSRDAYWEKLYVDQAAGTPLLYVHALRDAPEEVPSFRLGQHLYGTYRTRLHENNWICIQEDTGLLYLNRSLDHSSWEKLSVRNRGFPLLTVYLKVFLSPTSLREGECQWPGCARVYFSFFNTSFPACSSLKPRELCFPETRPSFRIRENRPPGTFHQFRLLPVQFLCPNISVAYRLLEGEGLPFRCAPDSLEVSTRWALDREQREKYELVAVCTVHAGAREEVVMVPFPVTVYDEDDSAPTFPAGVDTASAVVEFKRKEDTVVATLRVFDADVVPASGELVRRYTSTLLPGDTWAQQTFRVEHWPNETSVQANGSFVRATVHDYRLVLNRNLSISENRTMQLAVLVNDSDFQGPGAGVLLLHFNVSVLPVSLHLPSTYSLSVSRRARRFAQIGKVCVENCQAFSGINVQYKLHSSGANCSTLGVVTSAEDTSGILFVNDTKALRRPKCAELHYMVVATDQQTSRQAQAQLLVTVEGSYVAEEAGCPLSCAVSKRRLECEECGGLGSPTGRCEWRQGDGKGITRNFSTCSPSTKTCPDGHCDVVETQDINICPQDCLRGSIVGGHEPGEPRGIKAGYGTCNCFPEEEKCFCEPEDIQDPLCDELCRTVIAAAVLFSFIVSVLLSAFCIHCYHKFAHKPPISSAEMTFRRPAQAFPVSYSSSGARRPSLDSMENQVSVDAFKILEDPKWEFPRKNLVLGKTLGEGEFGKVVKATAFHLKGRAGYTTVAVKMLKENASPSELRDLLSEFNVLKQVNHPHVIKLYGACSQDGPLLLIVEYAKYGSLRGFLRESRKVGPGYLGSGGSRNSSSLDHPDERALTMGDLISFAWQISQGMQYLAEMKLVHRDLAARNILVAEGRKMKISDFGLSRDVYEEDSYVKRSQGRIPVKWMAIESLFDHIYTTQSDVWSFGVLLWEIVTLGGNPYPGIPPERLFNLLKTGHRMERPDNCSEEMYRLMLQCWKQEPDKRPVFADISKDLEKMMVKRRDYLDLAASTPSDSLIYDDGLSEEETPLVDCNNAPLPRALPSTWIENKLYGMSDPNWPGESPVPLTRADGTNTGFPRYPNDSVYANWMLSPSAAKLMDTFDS

In turn, `Cn1cc(-n2cnc3c(NCc4nc5cc(Cl)c(Cl)cc5[nH]4)nc(N4CCOCC4)nc32)cn1` returned a % of control in experiment [1] of 0.168%. For `Cc1cc([C@@H](C)Nc2ccccc2C(=O)O)c2nc(N3CCOCC3)cc(=O)n2c1` [AZD-6482], the % of control in experiment [2] turned out to be 98%. `CC[C@@H]1[C@H](F)C(=O)N[C@@H]1COc1nccc2cc(C(N)=O)c(OC)cc12` [ZIMLOVISERTIB]: the values for the % of inhibition in experiment [3], in experiment [4] and in experiment [5] were 58.9%, -0.8% and 2.4%, respectively. In turn, `Nc1cnc(N2CCc3cc(S(=O)(=O)Nc4c(F)cc(Cl)cc4F)cc(N4CCCC4=O)c32)nc1` [TP-020n] returned a % of control in experiment [6] of 78%.
